Test results as given in ChEMBL document CHEMBL3044631, “Synthesis of 2-[4,5-dimethyl-1-(phenylamino)-1H-imidazol-2-ylthio]-N-(thiazole-2-yl)acetamide derivatives and their anticancer activities” (2013).

Legend:
Format in all cases: functional
[1] = test system: IGROV-1; experiment: Anticancer activity against Homo sapiens (human) IGROV1 cells assessed as cell growth promotion at 10 uM after 48 hr by SRB assay
[2] = test system: UACC-62; experiment: Anticancer activity against Homo sapiens (human) UACC62 cells assessed as cell growth promotion at 10 uM after 48 hr by SRB assay
[3] = test system: SK-MEL-5; experiment: Anticancer activity against Homo sapiens (human) SK-MEL-5 cells assessed as cell growth promotion at 10 uM after 48 hr by SRB assay
[4] = test system: SN12C; experiment: Anticancer activity against Homo sapiens (human) SN12C cells assessed as cell growth promotion at 10 uM after 48 hr by SRB assay
[5] = test system: RXF 393; experiment: Anticancer activity against Homo sapiens (human) RXF393 cells assessed as cell growth promotion at 10 uM after 48 hr by SRB assay
[6] = test system: ACHN; experiment: Anticancer activity against Homo sapiens (human) ACHN cells assessed as cell growth promotion at 10 uM after 48 hr by SRB assay
[7] = test system: A498; experiment: Anticancer activity against Homo sapiens (human) A498 cells assessed as cell growth promotion at 10 uM after 48 hr by SRB assay
[8] = test system: NCI/ADR-RES; experiment: Anticancer activity against Homo sapiens (human) NCI/ADR-RES cells assessed as cell growth promotion at 10 uM after 48 hr by SRB assay
[9] = test system: MDA-MB-468; experiment: Anticancer activity against Homo sapiens (human) MDA-MB-468 cells assessed as cell growth promotion at 10 uM after 48 hr by SRB assay
[10] = test system: HCT-116; experiment: Anticancer activity against Homo sapiens (human) HCT116 cells assessed as cell growth promotion at 10 uM after 48 hr by SRB assay
[11] = test system: HCC 2998; experiment: Anticancer activity against Homo sapiens (human) HCC2998 cells assessed as cell growth promotion at 10 uM after 48 hr by SRB assay
[12] = test system: NCI-H226; experiment: Anticancer activity against Homo sapiens (human) NCI-H226 cells assessed as cell growth promotion at 10 uM after 48 hr by SRB assay
[13] = test system: HOP-62; experiment: Anticancer activity against Homo sapiens (human) HOP62 cells assessed as cell growth promotion at 10 uM after 48 hr by SRB assay
[14] = test system: A549; experiment: Anticancer activity against Homo sapiens (human) A549/ATCC cells assessed as cell growth promotion at 10 uM after 48 hr by SRB assay
[15] = test system: MOLT-4; experiment: Anticancer activity against Homo sapiens (human) MOLT4 cells assessed as cell growth promotion at 10 uM after 48 hr by SRB assay
[16] = test system: HL-60(TB); experiment: Anticancer activity against Homo sapiens (human) HL-60(TB) cells assessed as cell growth promotion at 10 uM after 48 hr by SRB assay
[17] = test system: CCRF-CEM; experiment: Anticancer activity against Homo sapiens (human) CCRF-CEM cells assessed as cell growth promotion at 10 uM after 48 hr by SRB assay
[18] = test system: SK-MEL-28; experiment: Anticancer activity against Homo sapiens (human) SK-MEL-28 cells assessed as cell growth promotion at 10 uM after 48 hr by SRB assay
[19] = test system: SNB-75; experiment: Anticancer activity against Homo sapiens (human) SNB75 cells assessed as cell growth promotion at 10 uM after 48 hr by SRB assay
[20] = test system: SF-295; experiment: Anticancer activity against Homo sapiens (human) SF295 cells assessed as cell growth promotion at 10 uM after 48 hr by SRB assay

Row | Compound | Activity [1] | Activity [2] | Activity [3] | Activity [4] | Activity [5] | Activity [6] | Activity [7] | Activity [8] | Activity [9] | Activity [10] | Activity [11] | Activity [12] | Activity [13] | Activity [14] | Activity [15] | Activity [16] | Activity [17] | Activity [18] | Activity [19] | Activity [20]
1 | CCOC(=O)c1csc(NC(=O)CSc2nc(C)c(C)n2Nc2ccc(C)cc2)n1 | 95.15% | 62.91% | 47.48% | 62.75% | 38.47% | 76.52% | 90.47% | 70.04% | 67.17% | 68.84% | 96.72% | 70.72% | 63.23% | 82.13% | 92.25% | 77.24% | 24.68% | 80.17% | 83.76% | 53.71%
2 | Cc1nc(SCC(=O)Nc2nccs2)n(Nc2ccccc2)c1C | 123.21% | 94.24% | 94.75% | 94.4% | 83.96% | 95.27% | 101.7% | 96.1% | 105.55% | 93.75% | 101.96% | 100.29% | 83.75% | 98.55% | 108.49% | 96.52% | 102.19% | 99.72% | 85.3% | 86.6%
3 | COc1ccc(Nn2c(SCC(=O)Nc3nccs3)nc(C)c2C)cc1 | 102.01% | 95.78% | 102.75% | 98.23% | 126.87% | 100.51% | 99.48% | 92.35% | 94.85% | 106.93% | 110.49% | 105.15% | 106.4% | 104.98% | 100.89% | 98.86% | 100.87% | 113.96% | 100.22% | 91.49%
